Reference: the NIST ThermoML archive (doi:10.1016/j.jct.2003.11.008)

Assays:
[1] = excess molar enthalpy (molar enthalpy of mixing); xn = mol fraction of the nth substance listed; details: 318.15 K, 101.3 kPa, Liquid
[2] = xn = mol fraction of the nth substance listed; details: 318.15 K, 101.3 kPa, Liquid

CCCOC(C)=O [propyl ethanoate] + CCCCCCC
Details | excess molar enthalpy [kJ/mol] | excess molar volume [m3/mol]
[1], x1 = 0.0692 | 0.345 | –
[1], x1 = 0.1449 | 0.633 | –
[1], x1 = 0.2229 | 0.884 | –
[1], x1 = 0.2968 | 1.05 | –
[1], x1 = 0.3635 | 1.16 | –
[1], x1 = 0.4256 | 1.22 | –
[1], x1 = 0.484 | 1.24 | –
[1], x1 = 0.535 | 1.22 | –
[1], x1 = 0.5539 | 1.19 | –
[1], x1 = 0.6002 | 1.13 | –
[1], x1 = 0.6528 | 1.05 | –
[1], x1 = 0.6987 | 0.956 | –
[1], x1 = 0.7526 | 0.828 | –
[1], x1 = 0.8089 | 0.659 | –
[1], x1 = 0.8635 | 0.493 | –
[1], x1 = 0.9048 | 0.354 | –
[1], x1 = 0.9537 | 0.185 | –
[2], x1 = 0.0727 | – | 3.32e-07
[2], x1 = 0.1288 | – | 4.98e-07
[2], x1 = 0.1829 | – | 6.45e-07
[2], x1 = 0.2463 | – | 7.68e-07
[2], x1 = 0.2995 | – | 8.38e-07
[2], x1 = 0.3536 | – | 8.87e-07
[2], x1 = 0.404 | – | 9.09e-07
[2], x1 = 0.463 | – | 9.23e-07
[2], x1 = 0.5069 | – | 9.1e-07
[2], x1 = 0.5618 | – | 8.85e-07
[2], x1 = 0.6574 | – | 7.96e-07
[2], x1 = 0.6914 | – | 7.52e-07
[2], x1 = 0.7928 | – | 5.61e-07
[2], x1 = 0.8765 | – | 3.62e-07
[2], x1 = 0.9436 | – | 1.75e-07

CCCCCCCCCCCCCCC [pentadecane] + COC(C)=O
Details | excess molar enthalpy [kJ/mol] | excess molar volume [m3/mol]
[1], x2 = 0.091 | 0.587 | –
[1], x2 = 0.1824 | 1.14 | –
[1], x2 = 0.2689 | 1.64 | –
[1], x2 = 0.3572 | 2.04 | –
[1], x2 = 0.4282 | 2.3 | –
[1], x2 = 0.4946 | 2.45 | –
[1], x2 = 0.5472 | 2.51 | –
[1], x2 = 0.5908 | 2.51 | –
[1], x2 = 0.6306 | 2.49 | –
[1], x2 = 0.6559 | 2.45 | –
[1], x2 = 0.6897 | 2.37 | –
[1], x2 = 0.7229 | 2.28 | –
[1], x2 = 0.7578 | 2.17 | –
[1], x2 = 0.7947 | 2.02 | –
[1], x2 = 0.8299 | 1.83 | –
[1], x2 = 0.8675 | 1.61 | –
[1], x2 = 0.905 | 1.32 | –
[1], x2 = 0.94 | 0.995 | –
[1], x2 = 0.9723 | 0.621 | –
[2], x2 = 0.1527 | – | 8.72e-07
[2], x2 = 0.2889 | – | 1.467e-06
[2], x2 = 0.3786 | – | 1.739e-06
[2], x2 = 0.4627 | – | 1.898e-06
[2], x2 = 0.5368 | – | 1.979e-06
[2], x2 = 0.5993 | – | 2.002e-06
[2], x2 = 0.6511 | – | 1.945e-06
[2], x2 = 0.6955 | – | 1.858e-06
[2], x2 = 0.7356 | – | 1.746e-06
[2], x2 = 0.777 | – | 1.644e-06
[2], x2 = 0.8099 | – | 1.512e-06
[2], x2 = 0.8412 | – | 1.386e-06
[2], x2 = 0.8595 | – | 1.259e-06
[2], x2 = 0.9126 | – | 9.19e-07
[2], x2 = 0.9511 | – | 5.84e-07
[2], x2 = 0.9777 | – | 2.73e-07

CCCCOC(C)=O [butyl ethanoate] + CCCCCCCCC
Details | excess molar enthalpy [kJ/mol] | excess molar volume [m3/mol]
[1], x1 = 0.0779 | 0.342 | –
[1], x1 = 0.1485 | 0.612 | –
[1], x1 = 0.2301 | 0.838 | –
[1], x1 = 0.3059 | 0.993 | –
[1], x1 = 0.3775 | 1.09 | –
[1], x1 = 0.442 | 1.13 | –
[1], x1 = 0.5 | 1.14 | –
[1], x1 = 0.5519 | 1.11 | –
[1], x1 = 0.5963 | 1.07 | –
[1], x1 = 0.6435 | 1.02 | –
[1], x1 = 0.6936 | 0.948 | –
[1], x1 = 0.7461 | 0.849 | –
[1], x1 = 0.8009 | 0.719 | –
[1], x1 = 0.8533 | 0.561 | –
[1], x1 = 0.9067 | 0.378 | –
[1], x1 = 0.9568 | 0.188 | –
[2], x1 = 0.0761 | – | 2.63e-07
[2], x1 = 0.1325 | – | 4.29e-07
[2], x1 = 0.1914 | – | 5.63e-07
[2], x1 = 0.2533 | – | 6.69e-07
[2], x1 = 0.3151 | – | 7.6e-07
[2], x1 = 0.3713 | – | 8.09e-07
[2], x1 = 0.4229 | – | 8.37e-07
[2], x1 = 0.4749 | – | 8.55e-07
[2], x1 = 0.5222 | – | 8.55e-07
[2], x1 = 0.5765 | – | 8.31e-07
[2], x1 = 0.6275 | – | 7.98e-07
[2], x1 = 0.6744 | – | 7.55e-07
[2], x1 = 0.7062 | – | 7.07e-07
[2], x1 = 0.8023 | – | 5.38e-07
[2], x1 = 0.8838 | – | 3.43e-07
[2], x1 = 0.9444 | – | 1.75e-07

CCCCCCCCCCCCC [tridecane] + CCOC(C)=O
Details | excess molar enthalpy [kJ/mol] | excess molar volume [m3/mol]
[1], x2 = 0.0838 | 0.509 | –
[1], x2 = 0.1616 | 0.906 | –
[1], x2 = 0.2388 | 1.27 | –
[1], x2 = 0.3097 | 1.55 | –
[1], x2 = 0.3743 | 1.76 | –
[1], x2 = 0.4307 | 1.88 | –
[1], x2 = 0.4842 | 1.95 | –
[1], x2 = 0.532 | 2 | –
[1], x2 = 0.5728 | 2 | –
[1], x2 = 0.6188 | 1.98 | –
[1], x2 = 0.6556 | 1.94 | –
[1], x2 = 0.6946 | 1.88 | –
[1], x2 = 0.7336 | 1.79 | –
[1], x2 = 0.7755 | 1.65 | –
[1], x2 = 0.8179 | 1.48 | –
[1], x2 = 0.8605 | 1.25 | –
[1], x2 = 0.9015 | 1 | –
[1], x2 = 0.9432 | 0.673 | –
[1], x2 = 0.9761 | 0.313 | –
[2], x2 = 0.1246 | – | 6.09e-07
[2], x2 = 0.2249 | – | 9.81e-07
[2], x2 = 0.3076 | – | 1.215e-06
[2], x2 = 0.3854 | – | 1.386e-06
[2], x2 = 0.4562 | – | 1.461e-06
[2], x2 = 0.5148 | – | 1.515e-06
[2], x2 = 0.5732 | – | 1.518e-06
[2], x2 = 0.6235 | – | 1.506e-06
[2], x2 = 0.6695 | – | 1.462e-06
[2], x2 = 0.7136 | – | 1.402e-06
[2], x2 = 0.7509 | – | 1.322e-06
[2], x2 = 0.775 | – | 1.255e-06
[2], x2 = 0.8123 | – | 1.128e-06
[2], x2 = 0.881 | – | 8.36e-07
[2], x2 = 0.9317 | – | 5.36e-07
[2], x2 = 0.9691 | – | 2.65e-07

CCCCCCCCCCC [undecane] + CCOC(C)=O
Details | excess molar enthalpy [kJ/mol] | excess molar volume [m3/mol]
[1], x2 = 0.1003 | 0.623 | –
[1], x2 = 0.1944 | 1.05 | –
[1], x2 = 0.2921 | 1.43 | –
[1], x2 = 0.3767 | 1.68 | –
[1], x2 = 0.4501 | 1.81 | –
[1], x2 = 0.509 | 1.85 | –
[1], x2 = 0.5537 | 1.84 | –
[1], x2 = 0.5965 | 1.83 | –
[1], x2 = 0.6065 | 1.81 | –
[1], x2 = 0.6498 | 1.73 | –
[1], x2 = 0.6942 | 1.63 | –
[1], x2 = 0.7366 | 1.52 | –
[1], x2 = 0.7848 | 1.36 | –
[1], x2 = 0.8361 | 1.14 | –
[1], x2 = 0.8884 | 0.861 | –
[1], x2 = 0.9357 | 0.589 | –
[1], x2 = 0.9742 | 0.249 | –
[2], x2 = 0.0632 | – | 3.65e-07
[2], x2 = 0.1076 | – | 5.64e-07
[2], x2 = 0.1921 | – | 8.99e-07
[2], x2 = 0.2759 | – | 1.151e-06
[2], x2 = 0.3521 | – | 1.328e-06
[2], x2 = 0.4213 | – | 1.429e-06
[2], x2 = 0.4771 | – | 1.49e-06
[2], x2 = 0.5319 | – | 1.504e-06
[2], x2 = 0.5859 | – | 1.504e-06
[2], x2 = 0.6355 | – | 1.461e-06
[2], x2 = 0.6817 | – | 1.385e-06
[2], x2 = 0.7223 | – | 1.311e-06
[2], x2 = 0.7656 | – | 1.17e-06
[2], x2 = 0.7889 | – | 1.147e-06
[2], x2 = 0.8628 | – | 8.46e-07
[2], x2 = 0.9234 | – | 5.39e-07
[2], x2 = 0.9664 | – | 2.63e-07
